Data: the NIST ThermoML archive (doi:10.1016/j.tca.2012.03.027)
± gives the expanded uncertainty stated by the source.

Settings: Crystal 2; DTA

Row | Triple point temperature [K] | SMILES
1 | 362 ± 4 | CC12CCC(CC1=O)C2(C)C (configuration not stated) [1,7,7-trimethylbicyclo[2.2.1]-2-heptanone]
2 | 367 ± 3 | CC1(C)[C@@H]2CC[C@@]1(C)C(=O)C2 [d-camphor]
